ChEMBL document CHEMBL1201862, “PubChem BioAssay data set” (2004)
Calls of active or inactive are those of the source.

How the values were obtained:
[1] = P. falciparum late gametocyte killing, dose response, luminescence (AID 1117278); assay type: functional, cell-based;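 also: gametocytes exposed to compound for 24 hours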
[2] = Jurkat T cell cytotoxicity, dose response, cytotoxicity control for P. falciparum gametocyte viability project, luminescence (AID 1117277); assay type: functional, cell-based;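 also: potency reflects loss of cellular ATP meaning fewer viable cells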
[3] = target: Protein Tat (Human immunodeficiency virus type 1 group M subtype B (isolate HXB2)(HIV-1), UniProt P04608); assay type: functional;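 also: tat binding to TAR RNA read out by fluorescence polarization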
Chain of Protein Tat (P04608 whole entry): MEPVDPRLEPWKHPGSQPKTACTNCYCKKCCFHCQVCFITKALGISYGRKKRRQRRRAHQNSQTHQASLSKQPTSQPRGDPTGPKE

[4] = target: T1, Caspase-6 (Homo sapiens, UniProt P55212); experiment: human caspase-6 inhibitors, dose response, biochemical, VEID-R110 fluorescence, cherry-pick (AID 720632)
T1 sequence (P55212 whole entry): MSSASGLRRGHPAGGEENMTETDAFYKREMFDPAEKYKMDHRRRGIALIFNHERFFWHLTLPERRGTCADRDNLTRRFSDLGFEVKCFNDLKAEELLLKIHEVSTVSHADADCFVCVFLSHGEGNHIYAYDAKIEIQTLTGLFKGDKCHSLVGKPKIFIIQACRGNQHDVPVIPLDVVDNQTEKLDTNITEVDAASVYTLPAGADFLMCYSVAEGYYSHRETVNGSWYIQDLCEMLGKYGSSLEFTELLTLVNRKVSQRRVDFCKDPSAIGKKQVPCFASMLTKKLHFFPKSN

[5] = target: T2, Corticotropin-releasing factor receptor 2/Corticotropin-releasing factor-binding protein (Homo sapiens, UniProt P24387+Q13324); experiment: activators of CRF receptor 2 with binding protein – uHTS hits, confirmation (AID 602473); assay type: functional; settings: read-out: EC50_Mean
T2 sequence (Q13324 whole entry): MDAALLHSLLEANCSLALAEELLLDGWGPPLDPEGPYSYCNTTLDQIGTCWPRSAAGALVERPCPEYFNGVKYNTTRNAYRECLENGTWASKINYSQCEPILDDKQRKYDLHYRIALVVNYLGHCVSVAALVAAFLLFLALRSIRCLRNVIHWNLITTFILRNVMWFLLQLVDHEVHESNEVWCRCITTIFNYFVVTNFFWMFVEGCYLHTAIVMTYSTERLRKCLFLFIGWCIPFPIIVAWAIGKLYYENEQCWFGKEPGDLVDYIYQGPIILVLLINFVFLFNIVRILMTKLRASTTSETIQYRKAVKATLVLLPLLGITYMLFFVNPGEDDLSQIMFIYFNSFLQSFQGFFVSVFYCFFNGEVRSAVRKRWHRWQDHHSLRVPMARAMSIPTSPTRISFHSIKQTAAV
T2 sequence (P24387 whole entry): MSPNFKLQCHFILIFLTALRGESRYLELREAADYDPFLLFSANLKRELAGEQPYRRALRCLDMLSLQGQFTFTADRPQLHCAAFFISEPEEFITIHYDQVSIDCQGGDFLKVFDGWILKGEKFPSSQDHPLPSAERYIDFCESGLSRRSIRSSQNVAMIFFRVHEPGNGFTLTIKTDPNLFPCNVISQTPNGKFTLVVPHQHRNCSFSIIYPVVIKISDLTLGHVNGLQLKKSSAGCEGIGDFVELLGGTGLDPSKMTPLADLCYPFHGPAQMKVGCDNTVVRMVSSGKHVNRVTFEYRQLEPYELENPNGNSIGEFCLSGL

[6] = target: T3, Histone-lysine N-methyltransferase NSD2 (Homo sapiens, UniProt O96028); assay type: biochemical
T3 sequence (O96028 whole entry): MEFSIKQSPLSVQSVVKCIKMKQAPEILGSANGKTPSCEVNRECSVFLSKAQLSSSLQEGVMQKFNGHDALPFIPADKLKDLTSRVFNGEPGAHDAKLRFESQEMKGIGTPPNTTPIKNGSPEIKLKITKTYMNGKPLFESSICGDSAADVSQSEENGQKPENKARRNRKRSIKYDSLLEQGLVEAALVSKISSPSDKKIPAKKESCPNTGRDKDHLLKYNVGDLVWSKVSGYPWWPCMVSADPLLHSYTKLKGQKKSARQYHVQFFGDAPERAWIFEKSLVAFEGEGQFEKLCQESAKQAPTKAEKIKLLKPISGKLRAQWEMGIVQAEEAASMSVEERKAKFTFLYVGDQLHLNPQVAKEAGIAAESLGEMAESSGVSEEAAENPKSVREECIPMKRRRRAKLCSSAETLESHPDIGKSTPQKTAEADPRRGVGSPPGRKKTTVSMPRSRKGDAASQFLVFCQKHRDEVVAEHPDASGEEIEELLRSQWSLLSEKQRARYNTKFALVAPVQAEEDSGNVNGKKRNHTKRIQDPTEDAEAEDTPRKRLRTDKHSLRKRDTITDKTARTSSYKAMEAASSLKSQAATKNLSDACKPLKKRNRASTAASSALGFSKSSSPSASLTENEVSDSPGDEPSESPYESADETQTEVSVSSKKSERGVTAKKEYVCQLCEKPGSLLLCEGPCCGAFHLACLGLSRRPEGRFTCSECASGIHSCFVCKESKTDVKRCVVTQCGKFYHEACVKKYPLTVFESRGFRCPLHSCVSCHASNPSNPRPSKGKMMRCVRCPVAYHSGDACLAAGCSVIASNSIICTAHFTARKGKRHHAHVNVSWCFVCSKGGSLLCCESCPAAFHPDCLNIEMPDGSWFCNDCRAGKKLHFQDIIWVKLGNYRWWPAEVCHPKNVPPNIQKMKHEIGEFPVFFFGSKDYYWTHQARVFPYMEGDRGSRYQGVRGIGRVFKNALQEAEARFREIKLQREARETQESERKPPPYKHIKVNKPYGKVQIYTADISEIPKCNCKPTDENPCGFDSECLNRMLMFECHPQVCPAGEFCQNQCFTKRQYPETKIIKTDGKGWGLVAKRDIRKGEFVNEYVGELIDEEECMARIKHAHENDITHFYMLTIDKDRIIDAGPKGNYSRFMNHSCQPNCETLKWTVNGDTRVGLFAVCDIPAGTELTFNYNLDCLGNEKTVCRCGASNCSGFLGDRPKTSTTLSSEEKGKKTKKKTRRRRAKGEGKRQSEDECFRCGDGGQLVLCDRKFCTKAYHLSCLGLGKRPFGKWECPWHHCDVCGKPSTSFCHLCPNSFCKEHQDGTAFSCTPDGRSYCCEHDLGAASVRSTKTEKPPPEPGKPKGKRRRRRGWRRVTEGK

[7] = target: Mitochondrial peptide methionine sulfoxide reductase (Bos taurus, UniProt P54149); experiment: Absorbance-based biochemical high throughput dose response assay for activators of Methionine sulfoxide reductase A (MsrA).; assay type: functional
Chain of Mitochondrial peptide methionine sulfoxide reductase (P54149 whole entry): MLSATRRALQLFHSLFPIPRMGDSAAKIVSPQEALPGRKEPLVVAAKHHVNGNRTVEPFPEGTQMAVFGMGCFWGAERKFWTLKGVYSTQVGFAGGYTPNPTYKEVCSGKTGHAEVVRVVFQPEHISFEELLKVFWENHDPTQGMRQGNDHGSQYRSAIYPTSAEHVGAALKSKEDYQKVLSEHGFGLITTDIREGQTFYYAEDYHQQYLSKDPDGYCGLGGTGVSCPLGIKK

[8] = target: T4, Caspase-7 (Homo sapiens, UniProt P55210); experiment: human caspase-7 inhibitors, dose response, selectivity assay for caspase-6 inhibitor project, biochemical, DEVD-R110 fluorescence, cherry-pick (AID 743295)
T4 sequence (P55210 whole entry): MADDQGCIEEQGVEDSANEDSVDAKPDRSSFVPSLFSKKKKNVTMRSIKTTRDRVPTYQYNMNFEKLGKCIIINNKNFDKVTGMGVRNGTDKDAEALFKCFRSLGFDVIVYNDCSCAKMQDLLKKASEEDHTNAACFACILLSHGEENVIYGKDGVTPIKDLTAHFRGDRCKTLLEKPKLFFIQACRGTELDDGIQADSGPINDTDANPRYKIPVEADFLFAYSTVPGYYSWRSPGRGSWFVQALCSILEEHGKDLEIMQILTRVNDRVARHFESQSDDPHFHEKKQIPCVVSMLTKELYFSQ

[9] = target: Paired box protein Pax-8 (Homo sapiens, UniProt Q06710); experiment: inhibitors of PAX8-driven TPO luciferase reporter, dose response, RMG-I cells, cherry-pick (AID 687027); assay type: functional, cell-based;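 also: luciferase reporter driven by Pax8 target thyroperoxidase promoter measured by SteadyGlo luminescence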
Chain of Paired box protein Pax-8 (Q06710 whole entry): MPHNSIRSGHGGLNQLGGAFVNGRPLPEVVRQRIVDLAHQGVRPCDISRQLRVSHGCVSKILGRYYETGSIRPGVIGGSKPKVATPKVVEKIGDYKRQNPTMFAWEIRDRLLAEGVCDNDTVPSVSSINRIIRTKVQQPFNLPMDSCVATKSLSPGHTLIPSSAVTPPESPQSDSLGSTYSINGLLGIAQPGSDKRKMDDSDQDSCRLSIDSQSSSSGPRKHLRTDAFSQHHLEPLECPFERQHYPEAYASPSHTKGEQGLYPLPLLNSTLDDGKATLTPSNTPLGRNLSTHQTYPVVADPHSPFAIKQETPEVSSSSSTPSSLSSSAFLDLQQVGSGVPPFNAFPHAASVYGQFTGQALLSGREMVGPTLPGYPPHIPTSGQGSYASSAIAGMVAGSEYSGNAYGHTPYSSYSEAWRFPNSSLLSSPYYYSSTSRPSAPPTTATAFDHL

[10] = cytotoxicity in OVCAR8 ovarian cancer cells, dose response, PAX8 project, cell-based, plate reader, dry powder samples (AID 743197); assay type: functional; settings: OVCAR-8
[11] = A2780 ovarian cancer cell cytotoxicity, dose response, cytotoxicity control, plate reader, dry powder samples (AID 743046); assay type: functional, cell-based
[12] = NIH:OVCAR-3 ovarian cancer cell cytotoxicity, dose response, PAX8 inhibitor project, plate reader, dry powder samples (AID 743044); assay type: functional, cell-based
[13] = IGROV1 ovarian cancer cell cytotoxicity, dose response, PAX8 inhibitor project, plate reader, dry powder samples (AID 743043); assay type: functional, cell-based; settings: IGROV-1
[14] = inhibitors of PGC1a acetylation in cells, dose response, cell-based, cherry-picked samples (AID 720514); assay type: functional;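 also: potency may reflect raised or lowered acetylation signal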
[15] = A375 melanoma cell cytotoxicity, dose response, counter-screen for MITF inhibitor project, CellTiter-Glo luminescence, dry powder, set 2 (AID 624489); assay type: functional, cell-based; settings: A-375;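 also: actives are compounds lowering A375 viability meaning general cytotoxicity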
[16] = A375 melanoma cell viability loss, dose response, counter-screen for MITF inhibitor project, CellTiter-Glo luminescence, dry powder, set 4 (AID 624364); assay type: functional, cell-based; settings: A-375;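 also: A375 melanoma cells are MITF independent so this is a counter screen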
[17] = SNU-C1 cell viability reduction, dose response, CellTiter-Glo luminescence (AID 1117323); assay type: functional, cell-based
[18] = cytotoxicity toward HCT116 cells – cell-based, CellTiter-Glo luminescence, IC50, dose response (AID 1117332); assay type: functional; settings: HCT-116
[19] = cytotoxicity toward HT-29 cells – cell-based, CellTiter-Glo luminescence, IC50, dose response (AID 1117330); assay type: functional
[20] = HeLa 2N DNA content increase, dose response, cell-based, IC50 (AID 1117349); assay type: functional
[21] = cytotoxicity toward Colo320 cells – cell-based, CellTiter-Glo luminescence, IC50, dose response (AID 1117334); assay type: functional; settings: COLO 320
[22] = Concentration-dependent survival of SW480 colon cancer line, luminescence detection with CellTiter-Glo, half-maximal inhibitory concentration (AID 1117338); assay type: functional
[23] = RKO cell viability reduction, dose response, CellTiter-Glo luminescence (AID 1117322); assay type: functional
[24] = HeLa 4N DNA content increase, dose response, cell-based, IC50 (AID 1117351); assay type: functional
[25] = CellTiter-Glo luminescent dose response of DLD-1 viability loss (AID 1117352); assay type: functional
[26] = HCT116 cell viability decrease, GSK3B pretreatment – CellTiter-Glo, IC50, dose response (AID 1117339); assay type: functional; settings: HCT-116

With `[O-][n+]1ccc(C2CC2)cc1` the IC50 [1] was > 109 µM (inactive) and the IC50 [2] was > 83.4 µM (inactive).

In the case of `Cc1ccc(CCC(=O)Nc2ccc(S(N)(=O)=O)cc2)o1`, the IC50 [3] is reported as > 100 µM (active).

In the case of `CCCN(CCC)C(=O)Cn1c(=O)n(CCC(=O)NCCc2ccccc2)c(=O)c2ccccc21`, the IC50 [1] is reported as > 109 µM (inactive) and the IC50 [2] is reported as > 83.3 µM (inactive).

For `COCCn1c2nc(=O)n(-c3ccccc3)c(=O)c-2nc2ccccc21`, the AC50 [4] was 3.93 µM (active), the EC50 [5] was 5.14 µM (active) and the AC50 [6] was 12.7 µM (active). The EC50 [7] was 95.4 µM (inactive) and the AC50 [8] was 8.13 µM (active).

In the case of `C[C@H]1CN([C@@H](C)CO)S(=O)(=O)c2ccc(C#Cc3ccccc3F)cc2O[C@@H]1CN(C)CC1CCOCC1`, the AC50 [9] is reported as 10.4 µM (active), the AC50 [10] is reported as 28.9 µM (active) and the AC50 [11] is reported as < 0.26 µM (active). The AC50 [12] was 34.1 µM (active).

With `C[C@@H]1CCCCO[C@H](CN(C)Cc2ccc(C(F)(F)F)cc2)[C@H](C)CN([C@@H](C)CO)C(=O)c2cc(NS(=O)(=O)c3ccc(F)cc3)ccc2O1` the AC50 [9] was 5.17 µM (active), the AC50 [10] was 36.9 µM (active) and the AC50 [13] was 37 µM (active). For the same molecule, the AC50 [11] was 55.3 µM (active) and the AC50 [12] was 24 µM (active).

In the case of `O=C1C=CCCN1C(=O)/C=C/c1cccc(C(F)(F)F)c1`, the AC50 [14] is reported as 1.77 µM (active).

In the case of `C[C@@H](NC1=C(Nc2ccccc2)C(=O)c2ccccc2C1=O)c1ccccc1`, the AC50 [15] is reported as 48.5 µM (active) and the AC50 [16] is reported as > 70 µM (inactive).

With `CCCCOC(=O)c1ccc(N)cc1` [BUTAMBEN] the IC50 [17] was > 20 µM (inactive), the IC50 [18] was > 20 µM (inactive) and the IC50 [19] was > 20 µM (inactive). The IC50 [20] was > 10 µM (inactive), the IC50 [21] was > 20 µM (inactive) and the IC50 [22] was 0.586 µM (active). The IC50 [23] was 0.137 µM (active), the IC50 [24] was > 10 µM (inactive) and the IC50 [25] was 4.56 µM (active).

For `COc1ccc2cc1Oc1ccc(cc1)C[C@H]1c3c(cc4c(c3Oc3cc5c(cc3OC)CCN(C)[C@@H]5C2)OCO4)CCN1C` [CEPHARANTHINE], the IC50 [19] was 1.36 µM (active), the IC50 [20] was > 10 µM (inactive) and the IC50 [21] was 1.43 µM (active). For the same molecule, the IC50 [22] was 0.308 µM (active), the IC50 [26] was 3.57 µM (active) and the IC50 [23] was 3.79 µM (active). The IC50 [24] was > 10 µM (inactive).
